Literature values in patent US6472362B1, “Detergent compositions in tablet form” (Unilever Home & Personal Care USA division of Conopco, Inc., priority 1997, dated 2002).
Like-named read-outs stand apart in the source and are kept apart here.

[1] = other common materials, at 200° C. (so in the source)

Structure (SMILES)	Water Solubility (g/100 g) [1]	solubility in water (at 20° C.)	Water Solubility (g/100 g) (highly water-soluble materials, saturated solution in 100 grams of water at 20° C.)
O=BO[O-].[Na+] [Sodium perborate anhydrous]	3.7 g/100 g		
O=P(O)(O)OP(=O)(O)OP(=O)(O)O [Sodium tripolyphosphate anhydrous]	15 g/100 g		
NC(N)=O [Urea]		exceeding 100 gms per 100 ml water	>100 g/100 g
